Values after ≈ are worked out from the molar mass of the structure shown.

In this experiment the test system is Staphylococcus aureus. Description: Antibacterial activity against methicillin-resistant Staphylococcus aureus USA300 LAC assessed as reduction in bacterial growth incubated for 21 hrs by broth dilution method. Format: functional.

By MIC is commonly meant the smallest concentration in the dilution series that meets the test's criterion for growth inhibition. As to `CC[C@H](C)[C@H]1NC(=O)[C@H](Cc2c[nH]c3ccccc23)NC(=O)[C@@H](C(C)C)NC(=O)[C@@H]2CSC(N2)[C@H](C(C)C)NC(=O)[C@@H](C(C)C)NC(=O)[C@H](C(C)C)NC1=O`, the MIC was 31.9 µM (≈ 25 µg/mL).

With `CC(C)C[C@H]1NC(=O)[C@H](Cc2c[nH]c3ccccc23)NC(=O)[C@@H](Cc2c[nH]c3ccccc23)NC(=O)[C@@H]2CSC(N2)[C@H](C(C)C)NC(=O)[C@@H](C(C)C)NC(=O)[C@H](C(C)C)NC1=O`, the MIC was 28.8 µM (≈ 25.1 µg/mL).

`CC[C@H](C)[C@H]1NC(=O)[C@@H]2CSC(N2)[C@H](C(C)C)NC(=O)[C@@H](C(C)C)NC(=O)[C@H](C(C)C)NC(=O)[C@@H](CC(C)C)NC(=O)[C@H](Cc2c[nH]c3ccccc23)NC1=O`: the MIC is 7.9 µM (≈ 6.3 µg/mL).

Take `CC[C@@H](C)[C@H]1NC(=O)[C@@H]2CSC(N2)[C@H](C(C)C)NC(=O)[C@@H](C(C)C)NC(=O)[C@H](C(C)C)NC(=O)[C@@H](CC(C)C)NC(=O)[C@H](Cc2c[nH]c3ccccc23)NC1=O`: the minimal inhibitory concentration (MIC) amounted to 31.4 µM (≈ 25 µg/mL).

On to `CC(C)C[C@H]1NC(=O)[C@H](c2ccccc2)NC(=O)[C@@H](C(C)C)NC(=O)[C@@H]2CSC(N2)[C@H](C(C)C)NC(=O)[C@@H](C(C)C)NC(=O)[C@H](C(C)C)NC1=O`, for which the MIC worked out at 137 µM (≈ 100 µg/mL).

Turning to `CC(C)C[C@H]1NC(=O)[C@H](Cc2ccc(C(=O)c3ccccc3)cc2)NC(=O)[C@@H](C(C)C)NC(=O)[C@@H]2CSC(N2)[C@H](C(C)C)NC(=O)[C@@H](C(C)C)NC(=O)[C@H](C(C)C)NC1=O`, the MIC was found to be 59 µM (≈ 50 µg/mL).

Take `CC(C)C[C@H]1NC(=O)[C@@H]2CSC(N2)[C@H](C(C)C)NC(=O)[C@@H](C(C)C)NC(=O)[C@H](C(C)C)NC(=O)[C@@H](CC(C)C)NC(=O)[C@H](Cc2c[nH]c3ccccc23)NC1=O`: the minimal inhibitory concentration (MIC) was 15.7 µM (≈ 12.5 µg/mL).

Turning to `CCC[C@H]1NC(=O)[C@@H]2CSC(N2)[C@H](C(C)C)NC(=O)[C@@H](C(C)C)NC(=O)[C@H](C(C)C)NC(=O)[C@@H](CC(C)C)NC(=O)[C@H](Cc2c[nH]c3ccccc23)NC1=O`, the MIC was found to be 16 µM (≈ 12.5 µg/mL).

For the compound `CC(C)[C@@H]1NC(=O)[C@@H](Cc2c[nH]c3ccccc23)NC(=O)[C@H](C(C)C)NC(=O)C2(CC2)NC(=O)[C@H](Cc2c[nH]c3ccccc23)NC(=O)[C@@H](C(C)C)NC(=O)[C@@H]2CSC1N2`, the MIC came to 119 µM (≈ 100 µg/mL).

(Values after ChEMBL document CHEMBL4834415, “Distinct Lugdunins from a New Efficient Synthesis and Broad Exploitation of Its MRSA-Antimicrobial Structure” (2021).)
